Experimental data published in patent US20220323471A1 (priority 2019, published 2022).
Entries after “also recorded” stand apart in the source; their conditions may differ. Like-named read-outs stand apart in the source and are kept apart here.

Tests used:
[1] = tested on: ZIKV strain MR766; test: ZIKV strain MR766 infection, 4G2 antibody flow cytometry; conditions: for IC50: Zika virus
[2] = tested on: TBEV-RVP; assay type: cell-based, tick-borne encephalitis virus
[3] = tested on: ZIKV-RVP; assay type: cell-based, Zika virus; conditions: VERO, HT1080, CHME3 cells; MOI 0.5; 48 hours
[4] = tested on: endosomes and lysosomes of HT1080 cells; test: Acridine Orange fluorescence, endosomal/lysosomal acidification; assay type: cell-based, human; conditions: 4 hours pre-incubation, DGP, diphyllin, 6DG 2, 1 or 0.1 μM, Bafilomycin 100 nM, NH4Cl 25 mM
Description: To determine whether DGP inhibited ZIKV infection by preventing the acidification of endosomes and lysosomes, Acridine Orange (AO) was used, a cell-permeable fluorescent dye marker that accumulates in low pH compartments such as endosomes and lysosomes.
HT1080 cells were pre-incubated for 4 hours with the Bafilomycin (FIG. 10A, 100 nM), NH4Cl (FIG. 10A, 25 mM), DGP (FIG. 10B: 2 μM, 1 μM, or 0.1 μM) diphyllin (FIG. 10C: 2 μM, 1 μM, or 0.1 μM), or 6DG (FIG. 10C: 2 μM, 1 μM, or 0.1 μM) to test whether DGP prevents endosomal/lysosomal acidification. After staining the cells with 1 μg/mL of AO, changes in fluorescence were measured using a Celesta flow cytometer on the PerCP-Cy5-5-A channel. A shift in the AO fluorescence is indicated with an arrow in FIGS. 10A-10D.
Acridine Orange (Invitrogen) staining was performed as described previously (Kanzawa, T. et al. 2004, “Role of autophagy in temozolomide-induced cytotoxicity for malignant glioma cells.” Cell Death Differ 11(4): 448-457). Cells were stained with 1 μg/mL AO in 10% FBS DMEM for 30 min at 37° C. and then collected by trypsinization. Changes in fluorescence were measured using a Celesta flow cytometer in the PerCP-Cy5-5-A channel.

[5] = tested on: WNV-RVP; assay type: cell-based, West Nile virus; conditions: VERO cells; DGP 1 μM; NH4Cl 20 mM
[6] = tested on: Sendai Virus (SeV); test: Sendai Virus infection and IFN-β production in CHME3 cells; assay type: cell-based; conditions: SeV MOI 1 and 10, DGP 1 μM, NH4Cl 20 mM
Description: The Flaviviridae family of viruses encode a glycoprotein that is necessary to achieve fusion at the endosomal/lysosomal membranes, the step that releases viral components into the cytoplasm. […] Instead, SeV fuses at the plasma membrane. To this end, IFN-β production and viral infection were measured in CHME3 cells infected with SeV at an MOI 1 and 10 in the presence of DGP (1 μM) or 20 mM NH4Cl.
To detect viral copies of ZIKV and Sendai Virus (SeV) by qRT-PCR, cells were seeded in 24-well plates, with or without DGP treatment, and infected with the virus at the indicated MOI for 48 h. After the incubation period, total RNA from HT1080, VERO, and CHME3 cells was isolated and purified using Trizol (Invitrogen). For detection of ZIKV viral load in brain and spleen, 3 mice were sacrificed at 6 days post-infection and total RNA was extracted from the brain and spleen. For cDNA synthesis, 1 ng of total RNA was reverse transcribed. The reaction mixture included 1 mM of deoxyribonucleotide phosphates (dNTPs), 2 nM of the specific reverse primer of ZIKV or SeV, 1× M-MULV buffer, 10 U M-MuLV RT (BioLabs), and 2 U of RNase Inhibitor. The reaction mixture was incubated for 1 hour at 42° C. followed by 20 min at 65° C. to inactivate the enzyme. For actin detection, Oligo-dT was used to reverse transcribe total RNA.
ZIKV RNA levels were measured using real-time PCR. HT1080 and VERO cells were challenged by ZIKV MR766 at an MOI of 1 in the presence of DGP. At 48 hours post-challenge, cells were lysed and total RNA was extracted using trizol. Total RNA was used to determine the levels of ZIKV RNA by real-time PCR using specific primers against ZIKA. qRT-PCR was carried out using SYBR green in a 20-μl final volume using a MASTERCYCLER proS machine. The primers used to detect ZIKV were: SEQ ID NO. 1: 5′-TT […]-3′-Forward (Genome Position 941-964) and SEQ ID NO. 2: 5′-[…]-3′-Reverse (Genome position 1123-1103) (AY632535.2). For the detection of SeV, the following primers were used: SEQ ID NO. 3: 5′-[…]-3′-Forward (Genome position 210-233) and SEQ ID NO. 4: 5′-[…]-3′-Reverse (Genome position 332-307) (M30202. Genome position 210-332) (Wagner, A. M. et al. 2003, “Detection of sendai virus and pneumonia virus of mice by use of fluorogenic nuclease reverse transcriptase polymerase chain reaction analysis.” Comp Med 53(2): 173-177). For the detection of IFN-β the following primers were used: SEQ ID NO. 5: Forward 5-[…]-3′ (Genome position 644-668) and SEQ ID Na 6: Reverse 5′-[…]-3′ (Genome position 718-697) (NM_002176.2) and for actin detection: SEQ ID NO. 7: 5′-[…]-′3-Forward and SEQ ID NO. 8: 5′-[…]′3-Reverse. ZIKA viral RNA levels were normalized to actin (upper panels). […]

With COc1cc2c(OC3OC(C)C(O)C(O)C3O)c3c(c(-c4ccc5c(c4)OCO5)c2cc1OC)C(=O)OC3 (centres unmarked) [DGP, 6-deoxyglucose-diphyllin] the “percentage of 4G2-positive cells” value ([1]; CHME3 cells, MOI 1, DGP 0.1 and 1 μM, NH4Cl 20 mM, 48 hours) was “substantial decrease”, the “potency of DGP relative to diphyllin” value ([1]; HT1080 and CHME3 cells) was 3-5 fold and the “concentration giving substantial inhibition of ZIKV infection” value ([1]; VERO, HT1080, CHME3 cells, MOI 1, 48 hours) was 0.25 to 0.50 µM. For the same compound, the IC50 ([1]; HT-1080, read-out: IC50, ZIKV infection) was 20 nM, the IC50 ([1]; read-out: IC50, ZIKV infection) was 40 nM and the “TBEV RVP infection” value [2] was “almost undetectable”. The “concentration at which ZIKV-RVP infection was substantially inhibited” value [3] was 0.25 to 0.50 µM, the “acidification of endosomes and lysosomes (AO fluorescence)” value [4] was “decreased AO fluorescence” and the “WNV RVP infection” value [5] was “almost undetectable”. For the same compound, the “IFN-β production in SeV-infected cells” value [6] was “did not inhibit; also recorded: increased induction” and the “SeV infection / viral replication” value [6] was “does not inhibit; also recorded: increased viral replication”.
